This is an account of results in ChEMBL document CHEMBL1201862, “PubChem BioAssay data set” (2004).

One test deals with CAAX prenyl protease 1 (Saccharomyces cerevisiae S288c, UniProt P47154). Description: yeast CAAX protease Ste24 inhibition – biochemical, S. cerevisiae, plate reader, cherry-pick, dose response (AID 488815).
The target of a further test is CAAX prenyl protease 2 (Saccharomyces cerevisiae S288c, UniProt Q03530). The class given is biochemical.
The target in test [1] is Lysine-specific demethylase 4A (Homo sapiens, UniProt O75164). Description: inhibition of JMJD2A H3K9me3 demethylation – biochemical, DELFIA europium, cherry-picked samples, selectivity assay for GASC-1 inhibitor project, dose response (AID 488840).
Chain of Lysine-specific demethylase 4A (O75164 whole entry): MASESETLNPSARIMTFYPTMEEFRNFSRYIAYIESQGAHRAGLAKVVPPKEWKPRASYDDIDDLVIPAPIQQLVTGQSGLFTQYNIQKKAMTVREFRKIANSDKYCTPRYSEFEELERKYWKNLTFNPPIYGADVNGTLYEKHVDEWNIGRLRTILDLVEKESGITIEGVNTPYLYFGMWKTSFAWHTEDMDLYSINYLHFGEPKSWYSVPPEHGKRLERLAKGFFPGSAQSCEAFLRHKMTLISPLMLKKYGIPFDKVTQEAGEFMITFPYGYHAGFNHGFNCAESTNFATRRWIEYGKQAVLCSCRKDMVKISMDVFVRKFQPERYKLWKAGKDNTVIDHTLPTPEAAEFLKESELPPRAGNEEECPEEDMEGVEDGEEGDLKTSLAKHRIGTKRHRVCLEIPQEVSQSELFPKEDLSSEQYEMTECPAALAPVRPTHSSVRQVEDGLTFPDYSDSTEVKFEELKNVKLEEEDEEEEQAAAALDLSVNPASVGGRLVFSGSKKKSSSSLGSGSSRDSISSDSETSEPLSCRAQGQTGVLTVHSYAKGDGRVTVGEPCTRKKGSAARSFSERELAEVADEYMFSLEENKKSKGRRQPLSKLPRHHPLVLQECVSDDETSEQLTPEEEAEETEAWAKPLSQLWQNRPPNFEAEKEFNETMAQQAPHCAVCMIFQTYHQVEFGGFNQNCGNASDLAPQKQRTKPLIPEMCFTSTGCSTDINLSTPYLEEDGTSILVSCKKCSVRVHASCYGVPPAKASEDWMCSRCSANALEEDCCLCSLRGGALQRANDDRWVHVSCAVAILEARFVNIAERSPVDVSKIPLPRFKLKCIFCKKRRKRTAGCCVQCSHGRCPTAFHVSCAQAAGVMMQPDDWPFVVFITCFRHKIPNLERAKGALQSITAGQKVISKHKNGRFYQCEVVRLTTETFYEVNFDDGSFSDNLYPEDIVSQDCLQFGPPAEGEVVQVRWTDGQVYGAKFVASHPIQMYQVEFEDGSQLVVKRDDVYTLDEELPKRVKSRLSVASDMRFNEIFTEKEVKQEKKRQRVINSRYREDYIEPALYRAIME
Test [2] deals with T1, Lysine-specific demethylase 4C (Homo sapiens, UniProt Q9H3R0).
T1 sequence (Q9H3R0 whole entry): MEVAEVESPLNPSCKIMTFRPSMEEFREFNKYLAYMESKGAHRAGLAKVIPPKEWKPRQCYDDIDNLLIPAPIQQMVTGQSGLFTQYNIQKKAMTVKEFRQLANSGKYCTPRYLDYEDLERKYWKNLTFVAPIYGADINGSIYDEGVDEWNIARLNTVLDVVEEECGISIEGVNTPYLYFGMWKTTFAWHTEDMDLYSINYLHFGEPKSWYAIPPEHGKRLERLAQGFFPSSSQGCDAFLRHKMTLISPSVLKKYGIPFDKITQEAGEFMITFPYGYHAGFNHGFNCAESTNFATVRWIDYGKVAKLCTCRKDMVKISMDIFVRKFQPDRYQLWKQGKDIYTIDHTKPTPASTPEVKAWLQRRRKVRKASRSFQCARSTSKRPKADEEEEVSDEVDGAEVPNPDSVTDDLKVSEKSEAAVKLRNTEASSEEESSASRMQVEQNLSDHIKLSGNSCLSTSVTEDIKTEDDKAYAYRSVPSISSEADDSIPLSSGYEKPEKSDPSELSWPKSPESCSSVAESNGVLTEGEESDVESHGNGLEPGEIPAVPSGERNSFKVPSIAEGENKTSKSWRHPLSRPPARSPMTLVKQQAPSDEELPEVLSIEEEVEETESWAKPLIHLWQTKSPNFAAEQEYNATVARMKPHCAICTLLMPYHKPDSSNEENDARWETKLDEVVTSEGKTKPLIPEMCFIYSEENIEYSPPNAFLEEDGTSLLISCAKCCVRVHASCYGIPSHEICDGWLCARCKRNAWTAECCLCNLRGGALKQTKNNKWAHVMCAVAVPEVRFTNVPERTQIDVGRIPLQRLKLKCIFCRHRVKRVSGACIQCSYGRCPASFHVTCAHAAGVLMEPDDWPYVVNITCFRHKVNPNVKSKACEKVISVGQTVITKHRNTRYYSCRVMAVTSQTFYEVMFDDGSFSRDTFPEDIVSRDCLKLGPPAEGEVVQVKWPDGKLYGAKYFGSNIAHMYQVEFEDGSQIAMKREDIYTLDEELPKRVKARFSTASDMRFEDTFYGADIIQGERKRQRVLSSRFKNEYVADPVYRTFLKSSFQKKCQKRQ
Description: inhibition of JMJD2C H3K9me3 demethylation – biochemical, DELFIA europium, cherry-picked samples, dose response (AID 488835). The class given is functional.

In the next test the test system is HEK293. Description: cells. The note with it: Homo sapiens.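 Further: cells exposed to compound for 14 hours overnight before viability readout.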
Test [3] has as its target Nucleotide-binding oligomerization domain-containing protein 1 (Homo sapiens, UniProt Q9Y239). Description: blockers of NOD1 pathway activity – revised, SAR follow-up (AID 2333). The class given is functional.
A further test concerns the target Tumor necrosis factor (Homo sapiens, UniProt P01375). Description: analog potency on TNFa NF-kB signaling – cell-based, revised, SAR follow-up (AID 2337). The class given is functional.
The target of test [4] is Nucleotide-binding oligomerization domain-containing protein 2 (Homo sapiens, UniProt Q9HC29). Description: PubChem AID 2334. The class given is functional.
Chain of Nucleotide-binding oligomerization domain-containing protein 2 (Q9HC29 whole entry, the tested form may be a part): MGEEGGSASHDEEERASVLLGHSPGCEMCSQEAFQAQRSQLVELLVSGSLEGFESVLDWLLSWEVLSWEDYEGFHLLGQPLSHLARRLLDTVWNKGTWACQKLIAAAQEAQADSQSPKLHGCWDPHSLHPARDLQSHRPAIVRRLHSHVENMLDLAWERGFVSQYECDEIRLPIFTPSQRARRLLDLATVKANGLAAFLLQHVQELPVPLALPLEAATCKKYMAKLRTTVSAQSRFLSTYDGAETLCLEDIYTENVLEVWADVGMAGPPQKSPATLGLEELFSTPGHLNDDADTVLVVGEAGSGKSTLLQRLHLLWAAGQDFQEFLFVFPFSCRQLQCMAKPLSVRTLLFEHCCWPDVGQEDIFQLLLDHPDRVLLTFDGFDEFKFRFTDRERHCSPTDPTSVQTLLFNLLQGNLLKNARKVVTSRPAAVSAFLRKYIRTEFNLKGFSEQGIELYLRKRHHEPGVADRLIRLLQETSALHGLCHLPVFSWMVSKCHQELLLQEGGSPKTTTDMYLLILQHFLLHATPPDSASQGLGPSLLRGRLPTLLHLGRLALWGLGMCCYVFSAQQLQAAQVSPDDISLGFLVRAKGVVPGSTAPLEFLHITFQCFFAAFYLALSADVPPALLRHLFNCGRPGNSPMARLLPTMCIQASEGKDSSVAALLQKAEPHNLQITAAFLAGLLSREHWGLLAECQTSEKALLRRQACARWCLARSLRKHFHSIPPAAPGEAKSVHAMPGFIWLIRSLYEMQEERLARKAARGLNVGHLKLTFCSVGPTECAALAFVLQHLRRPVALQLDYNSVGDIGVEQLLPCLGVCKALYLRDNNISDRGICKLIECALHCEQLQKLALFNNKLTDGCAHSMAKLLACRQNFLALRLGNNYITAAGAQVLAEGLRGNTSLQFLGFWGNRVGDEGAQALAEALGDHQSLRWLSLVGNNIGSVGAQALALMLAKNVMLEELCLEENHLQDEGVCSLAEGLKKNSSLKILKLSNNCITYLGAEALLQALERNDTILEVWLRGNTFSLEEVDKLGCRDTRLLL
Test [5] has as its target T2, Tyrosine-protein phosphatase non-receptor type 7 (Homo sapiens, UniProt P35236).
T2 sequence (P35236 whole entry): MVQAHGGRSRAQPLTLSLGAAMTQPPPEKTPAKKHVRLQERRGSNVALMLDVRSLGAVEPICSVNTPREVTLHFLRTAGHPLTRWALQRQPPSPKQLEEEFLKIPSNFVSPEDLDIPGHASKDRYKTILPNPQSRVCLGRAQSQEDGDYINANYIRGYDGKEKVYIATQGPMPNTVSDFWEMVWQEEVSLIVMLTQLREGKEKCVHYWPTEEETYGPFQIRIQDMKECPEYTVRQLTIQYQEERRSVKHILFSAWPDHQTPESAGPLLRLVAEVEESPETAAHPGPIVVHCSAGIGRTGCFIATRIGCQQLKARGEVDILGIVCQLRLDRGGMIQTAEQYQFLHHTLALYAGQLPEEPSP
Description: HePTP tyrosine phosphatase activity blockers – biochemical, absorbance, leukemia target, primary screen (AID 521). The class given is functional.

Test [6] has as its target T3, Dual specificity protein phosphatase 3 (Homo sapiens, UniProt P51452). Description: VHR1 phosphatase inhibitors, primary screen, biochemical, absorbance, uHTS (AID 1654).
The nature of test [7]: DRD fibroblast viability loss – cell-based, non-viral oncogenic, luminescence, dose response (AID 1934). The class given is functional. As to conditions: Homo sapiens.
Test [8] addresses T4, Tyrosine-protein phosphatase non-receptor type 22 (Homo sapiens, UniProt Q9Y2R2). The class given is functional.
Test [9] has as its target T2, Tyrosine-protein phosphatase non-receptor type 7. The class given is functional.
Test [10] deals with BJ. Description: cells. The class given is functional, cell-based. The note with it: Homo sapiens.
In test [11] the test system is BJ. Description: BJ-TERT fibroblast viability loss – cell-based, RAS-independent, luminescence, dose response (AID 1933). As to conditions: Homo sapiens. The class given is functional.
In test [12] the test system is BJ. Description: growth inhibition of engineered Ras-driven BJ cells – cell-based, alamar blue fluorescence, cherrypicked samples, dose response (AID 2631).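 Further: confirmatory dose-response assay in RAS-dependent BJ fibroblasts engineered with TERT, LT and ST, with cytotoxicity read by fluorescence.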 The class given is functional. As to conditions: Homo sapiens.
Test [13] concerns the target T5, Dual specificity protein phosphatase 6 (Rattus norvegicus, UniProt Q64346).
T5 sequence (Q64346 whole entry): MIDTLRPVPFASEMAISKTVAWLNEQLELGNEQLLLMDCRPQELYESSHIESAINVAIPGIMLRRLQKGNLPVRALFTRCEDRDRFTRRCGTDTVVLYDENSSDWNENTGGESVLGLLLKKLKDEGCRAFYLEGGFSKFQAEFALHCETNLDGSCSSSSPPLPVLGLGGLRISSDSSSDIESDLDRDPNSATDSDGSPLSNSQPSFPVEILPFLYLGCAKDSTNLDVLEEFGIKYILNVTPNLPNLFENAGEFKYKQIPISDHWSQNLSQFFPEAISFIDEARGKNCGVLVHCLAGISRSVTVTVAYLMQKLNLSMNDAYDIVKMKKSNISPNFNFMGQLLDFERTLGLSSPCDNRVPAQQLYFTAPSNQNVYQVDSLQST
Description: inhibition of rat DUSP6 enzyme activity – biochemical, in vitro, primary screen (AID 425).

Test [14] deals with Heat shock protein HSP 90-alpha (Homo sapiens, UniProt P07900). The class given is functional, organism-based.
For test [15], the target named is T3, Dual specificity protein phosphatase 3. Description: VHR1 phosphatase inhibitors, biochemical (AID 1878).
Test [16] has as its target T4, Tyrosine-protein phosphatase non-receptor type 22. The class given is functional. This is another data set of the same source.
Test [17] has as its system BJ. Description: BJ-TERT-LT-ST fibroblast viability loss – cell-based, RAS-independent, luminescence, dose response (AID 1935).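 Further: BJ fibroblasts immortalized with TERT plus LT and ST oncogenes.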 As to conditions: Homo sapiens. The class given is functional.

Calls of active or inactive are those of the source. A value given as a limit tells only on which side of the number the result lay.

T4 sequence (Q9Y2R2 whole entry): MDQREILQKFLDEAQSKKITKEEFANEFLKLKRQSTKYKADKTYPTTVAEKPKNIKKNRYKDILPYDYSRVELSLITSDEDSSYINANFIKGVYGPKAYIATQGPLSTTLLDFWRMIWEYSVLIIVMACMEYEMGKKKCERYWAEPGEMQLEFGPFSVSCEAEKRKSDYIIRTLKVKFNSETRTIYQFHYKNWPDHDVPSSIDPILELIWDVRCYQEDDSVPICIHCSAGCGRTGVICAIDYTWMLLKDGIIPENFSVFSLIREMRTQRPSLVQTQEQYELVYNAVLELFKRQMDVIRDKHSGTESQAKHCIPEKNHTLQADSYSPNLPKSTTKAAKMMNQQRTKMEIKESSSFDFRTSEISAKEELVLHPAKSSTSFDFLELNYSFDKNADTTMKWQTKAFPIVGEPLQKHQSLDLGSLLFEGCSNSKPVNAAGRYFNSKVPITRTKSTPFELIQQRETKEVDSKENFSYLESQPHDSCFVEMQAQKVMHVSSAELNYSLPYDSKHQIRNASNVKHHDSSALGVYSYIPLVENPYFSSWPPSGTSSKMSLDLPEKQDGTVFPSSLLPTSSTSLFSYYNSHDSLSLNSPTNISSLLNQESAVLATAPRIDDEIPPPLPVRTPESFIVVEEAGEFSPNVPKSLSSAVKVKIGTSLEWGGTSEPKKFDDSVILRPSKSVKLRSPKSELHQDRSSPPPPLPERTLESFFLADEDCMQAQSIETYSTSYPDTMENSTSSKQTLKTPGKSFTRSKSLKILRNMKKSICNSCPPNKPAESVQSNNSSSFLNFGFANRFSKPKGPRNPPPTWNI
T3 sequence (P51452 whole entry): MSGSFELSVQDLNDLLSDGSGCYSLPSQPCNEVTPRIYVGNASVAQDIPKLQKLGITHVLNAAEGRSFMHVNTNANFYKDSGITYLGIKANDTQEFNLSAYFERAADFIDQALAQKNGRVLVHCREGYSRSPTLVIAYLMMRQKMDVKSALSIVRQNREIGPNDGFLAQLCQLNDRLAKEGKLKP
Chain of CAAX prenyl protease 1 (P47154 whole entry): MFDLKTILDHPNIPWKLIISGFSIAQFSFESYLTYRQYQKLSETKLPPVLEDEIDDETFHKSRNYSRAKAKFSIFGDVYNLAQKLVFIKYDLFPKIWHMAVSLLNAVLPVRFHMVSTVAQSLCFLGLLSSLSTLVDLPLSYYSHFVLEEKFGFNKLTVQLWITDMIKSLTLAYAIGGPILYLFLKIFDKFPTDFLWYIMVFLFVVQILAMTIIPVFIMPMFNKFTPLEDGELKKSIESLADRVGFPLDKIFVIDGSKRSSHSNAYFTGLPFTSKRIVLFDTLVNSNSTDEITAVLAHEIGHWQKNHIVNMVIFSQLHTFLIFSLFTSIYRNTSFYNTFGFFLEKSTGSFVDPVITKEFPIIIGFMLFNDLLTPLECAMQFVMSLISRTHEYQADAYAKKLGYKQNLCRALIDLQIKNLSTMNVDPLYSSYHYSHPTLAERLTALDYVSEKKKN
Chain of Tumor necrosis factor (P01375 whole entry, the tested form may be a part): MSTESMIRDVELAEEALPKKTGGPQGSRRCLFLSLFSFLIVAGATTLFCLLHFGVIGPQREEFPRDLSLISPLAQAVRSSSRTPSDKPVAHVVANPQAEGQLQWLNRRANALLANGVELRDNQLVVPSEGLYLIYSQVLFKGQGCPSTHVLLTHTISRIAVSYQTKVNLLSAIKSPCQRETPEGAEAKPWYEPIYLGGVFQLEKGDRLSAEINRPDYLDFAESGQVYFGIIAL
Chain of Nucleotide-binding oligomerization domain-containing protein 1 (Q9Y239 whole entry, the tested form may be a part): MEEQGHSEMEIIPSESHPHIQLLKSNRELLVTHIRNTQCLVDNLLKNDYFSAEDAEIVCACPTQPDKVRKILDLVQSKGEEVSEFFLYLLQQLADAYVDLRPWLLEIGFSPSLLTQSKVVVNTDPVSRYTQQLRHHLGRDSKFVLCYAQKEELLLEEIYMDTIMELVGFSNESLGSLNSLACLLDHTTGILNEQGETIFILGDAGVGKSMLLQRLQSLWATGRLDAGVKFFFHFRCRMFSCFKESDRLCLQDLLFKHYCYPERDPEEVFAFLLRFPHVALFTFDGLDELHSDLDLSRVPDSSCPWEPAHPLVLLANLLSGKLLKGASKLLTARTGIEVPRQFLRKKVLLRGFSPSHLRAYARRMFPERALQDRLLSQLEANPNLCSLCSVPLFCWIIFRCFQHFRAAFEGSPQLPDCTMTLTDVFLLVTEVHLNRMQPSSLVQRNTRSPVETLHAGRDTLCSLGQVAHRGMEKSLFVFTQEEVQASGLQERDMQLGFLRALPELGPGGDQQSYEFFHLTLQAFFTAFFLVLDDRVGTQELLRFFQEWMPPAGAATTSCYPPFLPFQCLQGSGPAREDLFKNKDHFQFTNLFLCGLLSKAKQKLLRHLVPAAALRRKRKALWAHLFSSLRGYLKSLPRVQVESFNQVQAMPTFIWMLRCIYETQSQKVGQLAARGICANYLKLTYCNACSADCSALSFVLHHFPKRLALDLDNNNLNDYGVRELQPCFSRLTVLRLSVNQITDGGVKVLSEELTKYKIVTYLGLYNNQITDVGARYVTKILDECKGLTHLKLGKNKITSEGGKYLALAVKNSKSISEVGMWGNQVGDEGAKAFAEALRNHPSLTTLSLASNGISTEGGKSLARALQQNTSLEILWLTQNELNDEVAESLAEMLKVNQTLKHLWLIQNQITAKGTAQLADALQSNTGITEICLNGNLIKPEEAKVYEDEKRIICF
Chain of CAAX prenyl protease 2 (Q03530 whole entry): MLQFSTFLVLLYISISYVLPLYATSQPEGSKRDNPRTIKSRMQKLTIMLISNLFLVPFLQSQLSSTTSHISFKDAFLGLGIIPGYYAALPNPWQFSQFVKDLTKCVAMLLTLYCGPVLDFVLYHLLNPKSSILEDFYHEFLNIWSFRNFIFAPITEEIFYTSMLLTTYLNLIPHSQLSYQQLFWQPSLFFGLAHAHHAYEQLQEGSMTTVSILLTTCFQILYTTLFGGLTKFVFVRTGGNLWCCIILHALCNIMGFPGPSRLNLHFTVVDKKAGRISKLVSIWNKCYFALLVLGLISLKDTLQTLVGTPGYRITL

As to `COc1ccc(N2CCN(C(=O)c3cc(-c4cccs4)nc4ccccc34)CC2)cc1`, the AC50 was 47.6 µM (active) at CAAX prenyl protease 1 and 4.06 µM (active) at CAAX prenyl protease 2.

As to `CCCCOc1ccc(CC2C(=O)N(C)C(=O)N(C)C2=O)cc1`, the AC50 is 12.5 µM (active) in [1] and 1.76 µM (active) in test [2].

Consider `Cc1cc(C(=O)NC2CCCc3c2cnn3-c2ccccc2F)[nH]n1` (stereo unspecified), for which the IC50 (in the test on HEK293; in test [3]; on Tumor necrosis factor; in test [4]) was > 20 µM (inactive) throughout.

With `O=C(c1cccs1)c1no[n+]([O-])c1C(=O)c1cccs1`, the IC50 in test [5] was > 100 µM (not active); in test [6] it was < 0.98 µM (inactive); in test [8], < 1.24 µM (active); in [9], 4.5 µM (active); in test [13], 141 µM (not active); in test [15], 7.48 µM (active). Further, the IC50 in test [16] was 2.39 µM (active). Moreover, the 50% effective concentration (EC50) is 2.78 µM (inconclusive) in [7]; 3.58 µM (active) in the test on BJ [10]; 0.803 µM (active) in the test with BJ [11]; 3.9 µM (inconclusive) in the test on BJ [12]; 7.28 µM (inconclusive) with BJ [17]. Besides, the AC50 in test [14] was 3.5 µM (active).
